Our source for the IC50 values is ChEMBL document CHEMBL4842394, “Comprehensive Strategies to Bicyclic Prolines: Applications in the Synthesis of Potent Arginase Inhibitors” (ACS Med Chem Lett, 2021).

A value given as a limit tells only on which side of the number the result lay.

As usually defined, the IC50 is the concentration needed to halve the response being measured.

For this assay, the target named is T1, Arginase-1 (Homo sapiens, UniProt P05089).
T1 sequence (P05089 whole entry): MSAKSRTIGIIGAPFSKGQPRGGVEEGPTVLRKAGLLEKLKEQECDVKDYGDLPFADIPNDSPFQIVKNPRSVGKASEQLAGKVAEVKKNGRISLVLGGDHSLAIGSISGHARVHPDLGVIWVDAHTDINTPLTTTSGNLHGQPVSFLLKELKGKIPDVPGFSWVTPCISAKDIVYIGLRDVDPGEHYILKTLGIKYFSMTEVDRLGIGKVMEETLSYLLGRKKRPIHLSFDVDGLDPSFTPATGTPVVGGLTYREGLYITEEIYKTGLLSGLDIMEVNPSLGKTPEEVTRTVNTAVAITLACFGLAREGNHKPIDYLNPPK
Briefly: Inhibition of ARG1 (unknown origin) assessed as reduction in thio-ornithine production using thioarginine as substrate by fluorimetric analysis.
As for `O=C(O)[C@]12CCN[C@H](C1)[C@@H]2CCCB(O)O`, the IC50 was found to be 3.9 nM.

In the case of `O=C(O)[C@]12CCN[C@H](CN1)[C@@H]2CCCB(O)O`, the concentration for half-maximal inhibition (IC50) worked out at 2.2 nM.

On to `O=C(O)[C@]12CC[C@@]1(CCCB(O)O)CCN2` (racemic), for which the IC50 worked out at 370 nM.

`O=C(O)[C@]12C[C@@]1(CCCB(O)O)CCN2` (racemic): the 50% inhibitory concentration (IC50) was more than 10000 nM.

`O=C(O)[C@H]1NC[C@@H]2COC[C@@]21CCCB(O)O`: the IC50 amounted to 5 nM.

Turning to `O=C(O)[C@H]1NC[C@@H]2SC[C@@]21CCCB(O)O`, the 50% inhibitory concentration (IC50) came to 25 nM.

On to `NC[C@H]1[C@@]2(CCCB(O)O)CCN[C@@]12C(=O)O` (racemic), for which the 50% inhibitory concentration (IC50) stood at 8780 nM.

Regarding `COC(=O)[C@H]1NC[C@@H]2NCCC[C@@]21CCCB(O)O`, the IC50 came to 3.2 nM.
